Consider twelve molecules from publication PMC11089506 (Journal of Medicinal Chemistry, 2024).

Each structure is given as a SMILES string. pEC50, pIC50, pKi: −log10 of the molar value. Where two headings read alike, the source gives them in different places.

The target of one data set is T1, human 5-HT2BR (Homo sapiens, UniProt P41595).
T1 construct: host or cells: HEK293 (membrane homogenates)
Briefly: [125I]DOI competition binding assay. On the procedure:
(§1) Following incubation, the samples were filtered rapidly under vacuum through glass fiber filters (GF/B, Packard) presoaked with 0.3% polyethylenimine and rinsed several times with ice cold wash buffer (50 mM Tris-HCl, pH 7.4) using a 96-sample cell harvester (Unifilter, Packard). The filters were dried and then counted for radioactivity in a scintillation counter (Topcounter, Packard) using a scintillation cocktail (Microscint-0, Packard).

For data set [1], the target named is T2, human 5-HT2CR (Homo sapiens, UniProt P28335). Nature of the data set: [125I]DOI competition binding assay. On the procedure: as §1
T2 sequence (P28335 33-458): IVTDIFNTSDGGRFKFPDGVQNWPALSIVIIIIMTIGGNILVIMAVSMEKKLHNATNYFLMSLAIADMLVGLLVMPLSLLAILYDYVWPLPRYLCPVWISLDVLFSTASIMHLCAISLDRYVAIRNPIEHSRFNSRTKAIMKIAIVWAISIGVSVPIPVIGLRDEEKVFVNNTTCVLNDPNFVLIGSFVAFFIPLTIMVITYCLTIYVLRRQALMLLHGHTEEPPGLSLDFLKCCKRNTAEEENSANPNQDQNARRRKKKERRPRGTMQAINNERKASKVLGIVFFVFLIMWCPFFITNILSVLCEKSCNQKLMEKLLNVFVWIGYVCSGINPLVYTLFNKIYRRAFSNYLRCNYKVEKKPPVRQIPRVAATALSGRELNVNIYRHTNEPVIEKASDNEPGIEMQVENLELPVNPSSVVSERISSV
The next data set has as its target human 5-HT2AR (Homo sapiens, UniProt P28223). Nature of the data set: Ca2+/Fluo-4 assay, agonist mode, stable 5-HT2AR-HEK293 cells. Particulars: for 5-HT2AR pEC50 ± S.E.M. / 5-HT2AR Rmax ± S.E.M.: Table S2; for pEC50: read-out: 5-HT2AR EC50; for 5-HT2AR Rmax (%): % of the 5-HT Rmax; for 5-HT2AR Rmax ± S.E.M.: % of the 5-HT Rmax on the same 96-well plate.
Data set [2] concerns the target T2, human 5-HT2CR. Nature of the data set: Ca2+/Fluo-4 assay, antagonist mode (5-HT EC90 as agonist), stable 5-HT2CR-HEK293 cells.
Data set [3] deals with T2, human 5-HT2CR. Nature of the data set: Ca2+/Fluo-4 assay, agonist mode, stable 5-HT2CR-HEK293 cells. The note with it: for EC50: 5-HT2CR EC50 (nM); for EC50 / pEC50: at least 3 independent experiments; for pEC50: read-out: 5-HT2CR EC50.
Another data set has as its system MDR1. Nature of the data set: MDR1-MDCK II permeability assay. The format is in vitro ADME. The note with it: dog, MDCK-MDR1, pH 7.4, Table S6.
A further data set concerns MDR1-MDCKII. Nature of the data set: MDR1-MDCK II permeability assay. In kind it is in vitro ADME. The note with it: Table S6.
In a further data set the test system is MDR1 (P-gp). Nature of the data set: MDR1-MDCK II permeability assay. In kind it is in vitro ADME. The note with it: dog, MDCK-MDR1, pH 7.4.
The test system of data set [4] is 5-HT2AR, 5-HT2BR, and 5-HT2CR. The note with it: cited from earlier work.
Setting [5] is: 5-HT2CR pIC50 ± S.E.M., Table S2.
Where [6] appears, read: Table 1, at least 3 independent experiments.
Setting [7] is: Table 2, at least 3 independent experiments.

Sequence of human 5-HT2AR (P28223 whole entry): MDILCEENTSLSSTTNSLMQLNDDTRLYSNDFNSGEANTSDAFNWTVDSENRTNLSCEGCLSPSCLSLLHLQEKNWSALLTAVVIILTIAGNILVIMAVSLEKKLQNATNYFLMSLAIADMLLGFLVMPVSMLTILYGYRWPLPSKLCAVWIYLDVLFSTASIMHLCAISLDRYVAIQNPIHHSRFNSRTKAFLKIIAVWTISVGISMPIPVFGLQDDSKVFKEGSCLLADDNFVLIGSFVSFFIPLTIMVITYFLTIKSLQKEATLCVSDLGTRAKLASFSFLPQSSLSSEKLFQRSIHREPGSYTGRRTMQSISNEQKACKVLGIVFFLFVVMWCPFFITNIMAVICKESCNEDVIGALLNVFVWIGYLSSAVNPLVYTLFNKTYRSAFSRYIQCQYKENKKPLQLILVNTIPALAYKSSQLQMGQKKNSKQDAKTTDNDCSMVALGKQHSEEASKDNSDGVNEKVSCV
T1 sequence (P41595 whole entry): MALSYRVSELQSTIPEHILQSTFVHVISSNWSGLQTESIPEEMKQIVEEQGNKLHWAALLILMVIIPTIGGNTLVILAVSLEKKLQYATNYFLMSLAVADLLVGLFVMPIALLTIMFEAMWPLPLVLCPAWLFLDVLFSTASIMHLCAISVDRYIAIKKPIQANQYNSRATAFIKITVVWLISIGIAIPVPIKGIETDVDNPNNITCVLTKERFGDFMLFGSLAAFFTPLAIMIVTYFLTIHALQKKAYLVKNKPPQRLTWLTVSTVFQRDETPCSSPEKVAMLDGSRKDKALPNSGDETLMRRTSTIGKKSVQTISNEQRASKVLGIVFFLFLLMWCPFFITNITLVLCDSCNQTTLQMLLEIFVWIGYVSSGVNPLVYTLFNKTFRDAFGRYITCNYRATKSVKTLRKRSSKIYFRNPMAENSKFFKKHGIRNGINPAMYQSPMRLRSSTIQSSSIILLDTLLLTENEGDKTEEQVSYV

With `COc1cc(CC(C)N)c(OC)cc1I` (racemic) [(±)-DOI, 1-(4-iodo-2,5-dimethoxyphenyl)propan-2-amine, reference compound], the pKi on human 5-HT2BR was 8.91; at human 5-HT2CR [1] it was 9.29.
Take `COc1cc(C2CCCNC2)c(OC)cc1Br` (centres unmarked) [Compound 6eu, 3-(4-Bromo-2,5-dimethoxyphenyl)piperidine]: the half-maximal effective concentration (EC50) on human 5-HT2AR (5-HT2AR EC50 (nM), Table 1, at least 3 independent experiments) is 69 nM; on human 5-HT2CR [3] (Table 1), more than 50000 nM. For the same molecule, the pIC50 on human 5-HT2CR [2] (5-HT2CR IC50, Table 1) is 6.19; on human 5-HT2CR [2] (setting [5]), 6.20. Also, the “agonist activity at 5-HT2CR (in words)” value on human 5-HT2CR [3] is listed as “devoid of measurable agonist activity”.
For `COc1cc(C2CCCNC2)c(OC)cc1Cl` (centres unmarked) [Compound 8eu, 3-(4-Chloro-2,5-dimethoxyphenyl)piperidine], the “5-HT2AR pEC50 ± S.E.M.” value on human 5-HT2AR was determined as 7.18 ± 0.05. For the same molecule, the pEC50 at human 5-HT2AR (setting [6]) is 7.18. Besides, at human 5-HT2CR [2] (setting [5]), the negative-log IC50 (pIC50) is 6.06. The molecule further showed an EC50 on human 5-HT2CR [3] (Table 1) of more than 50000 nM.
On the same counts, the results for `COc1cc(C2CCCNC2)c(OC)cc1I` (centres unmarked) [Compound 9eu, 3-(4-Iodo-2,5-dimethoxyphenyl)piperidine] are 7.43 ± 0.02, 7.43, 5.96 and more than 50000 nM.
On the same counts, the results for `COc1cc(C2CCCNC2)c(OC)cc1C#N` (centres unmarked) [Compound 10eu, 2,5-Dimethoxy-4-(piperidin-3-yl)benzonitrile] are 6.56 ± 0.13, 6.57, approximately 4.80 and more than 50000 nM.
Consider `CCOc1cc(C2CCCNC2)c(OC)cc1C(F)(F)F.Cl` (centres unmarked) [Compound 25eu, 3-(5-Ethoxy-2-methoxy-4-(trifluoromethyl)phenyl)piperidine Hydrochloride], for which the “5-HT2AR Rmax (%)” value on human 5-HT2AR (Table 2) stood at 95%. Besides, the “5-HT2AR pEC50 ± S.E.M.” value at human 5-HT2AR worked out at 7.99 ± 0.11. Further, the “5-HT2AR Rmax ± S.E.M.” value at human 5-HT2AR was 95 ± 1%. In addition, the pEC50 at human 5-HT2AR (setting [7]) was 8.00; at human 5-HT2CR [3] (Table 2), 6.54. Moreover, the “5-HT2CR pEC50 ± S.E.M.” value at human 5-HT2CR [3] (Table S2) amounted to 6.54 ± 0.04.
In the case of `CCOc1cc(C(F)(F)F)c(OCC)cc1C1CCCNC1.Cl` (centres unmarked) [Compound 26dis, 3-(2,5-Diethoxy-4-(trifluoromethyl)phenyl)piperidine Hydrochloride], the “5-HT2AR Rmax (%)” value at human 5-HT2AR (Table 2) turned out to be 69%. In addition, at human 5-HT2AR, the “5-HT2AR pEC50 ± S.E.M.” value is reported as 5.52 ± 0.06 and the “5-HT2AR Rmax ± S.E.M.” value was 69 ± 4%. Besides, the pEC50 on human 5-HT2AR (setting [7]) is 5.52. Besides, the pEC50 on human 5-HT2CR [3] (Table 2) is less than 5.00.
With `CCOc1cc(C(F)(F)F)c(OCC)cc1C1CCCNC1.Cl` (centres unmarked) [Compound 26eu, 3-(2,5-Diethoxy-4-(trifluoromethyl)phenyl)piperidine Hydrochloride], the “5-HT2AR Rmax (%)” value on human 5-HT2AR (Table 2) amounted to 47%. On human 5-HT2AR, the “5-HT2AR pEC50 ± S.E.M.” value was 6.99 ± 0.07 and the “5-HT2AR Rmax ± S.E.M.” value was 47 ± 6%. In addition, at human 5-HT2AR (setting [7]), the negative-log EC50 (pEC50) is 7.00. The “fold drop in agonist potency (fold higher EC50) at 5-HT2AR” value at human 5-HT2AR (relative to (S)-11) was determined as 30 fold. The same molecule came in with an EC50 at human 5-HT2CR [3] (Table 2) of more than 10000 nM.
With `C[C@H]1O[C@@H](O[C@H]2[C@@H](O)C[C@H](O[C@H]3[C@@H](O)C[C@H](O[C@H]4CC[C@@]5(C)[C@H](CC[C@@H]6[C@@H]5C[C@@H](O)[C@]5(C)[C@@H](C7=CC(=O)OC7)CC[C@]65O)C4)O[C@@H]3C)O[C@@H]2C)C[C@H](O)[C@@H]1O` [Digoxin], in the data set with MDR1 (read-out: Mean Recovery B to A), the recovery at […] was determined as 92%. Moreover, the “Rank Papp” value in the data set on MDR1-MDCKII is on record as “Low”. Further, in the data set on MDR1 (P-gp), the Papp A→B at […] is 0.22 ×10⁻⁶ cm/s and the Papp B→A at […] is 12.4 ×10⁻⁶ cm/s.
`COCCc1ccc(OCC(O)CNC(C)C)cc1` (centres unmarked) [Metoprolol]: the recovery at […] in the data set with MDR1 (read-out: Mean Recovery A to B) was 97%. The “Rank Papp” value with MDR1-MDCKII is recorded as “High”. Also, the Papp A→B at […] in the data set on MDR1 (P-gp) stood at 24.2 ×10⁻⁶ cm/s.
The corresponding values for `CC(C)(C)NCC(O)COc1cccc2c1CC(O)C(O)C2` (centres unmarked) [Nadolol] are 93%, “Low” and 0.54 ×10⁻⁶ cm/s.
In the case of `CN(C)CCc1c[nH]c2cccc(O)c12` [psilocin], in data set [4], the “agonist profile at 5-HT2AR, 5-HT2BR, and 5-HT2CR (in words)” value is “equipotent and equiefficacious agonist”.
